From the supplement of paper PMC10307832

What was measured:
Experiment in all cases: relative viability (nuclei count vs DMSO), 5 days (fraction); higher = more cells survive
Zosuquidar + Foretinib = compound: O[C@@H](COc1cccc2ncccc12)CN1CCN([C@@H]2c3ccccc3[C@@H]3[C@H](c4ccccc42)C3(F)F)CC1 [Zosuquidar] + COc1cc2c(Oc3ccc(NC(=O)C4(C(=O)Nc5ccc(F)cc5)CC4)cc3F)ccnc2cc1OCCCN1CCOCC1 [Foretinib] (partner 0.25 µM)
Summary of the method: (§1)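 Lung cancer cell lines in 1536-well plates got either a single drug or a fixed anchor-drug dose together with five library-drug doses (not always all listed) in √10 steps, by pin tool, on the day after seeding. Nuclei were counted after 5 days, and relative viability is the treated-to-vehicle ratio of nuclei counts. Values are medians of duplicate plates.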

[1] = compound: COc1cc2nccc(Oc3ccc(NC(=O)C4(C(=O)Nc5ccc(F)cc5)CC4)cc3)c2cc1OC [Cabozantinib] + Nc1ncn([C@H]2C[C@H](O)[C@@H](CO)O2)c(=O)n1 [Decitabine] (partner 2 µM)
Summary of the method: as §1

Kobe2602 + OSI-027 = compound: C1=CC(=CC=C1NC(=S)NNC2=C(C=C(C=C2[N+](=O)[O-])C(F)(F)F)[N+](=O)[O-])F [Kobe2602] + COc1cccc2cc(-c3nc([C@H]4CC[C@H](C(=O)O)CC4)n4ncnc(N)c34)[nH]c12 [OSI-027] (partner 0.5 µM)
Summary of the method: as §1

Kobe2602 + Decitabine = compound: C1=CC(=CC=C1NC(=S)NNC2=C(C=C(C=C2[N+](=O)[O-])C(F)(F)F)[N+](=O)[O-])F [Kobe2602] + Nc1ncn([C@H]2C[C@H](O)[C@@H](CO)O2)c(=O)n1 [Decitabine] (partner 2 µM)
Summary of the method: as §1

Cell Line | relative viability (Zosuquidar + Foretinib; first compound 0.01 µM) | relative viability (Zosuquidar + Foretinib; first compound 0.03162 µM) | relative viability (Zosuquidar + Foretinib; first compound 0.3162 µM) | relative viability (Zosuquidar + Foretinib; first compound 1 µM) | relative viability ([1]; first compound 0.06325 µM) | relative viability ([1]; first compound 0.2 µM) | relative viability ([1]; first compound 0.6325 µM) | relative viability ([1]; first compound 2 µM) | relative viability (Kobe2602 + OSI-027; first compound 0.2 µM) | relative viability (Kobe2602 + OSI-027; first compound 0.6325 µM) | relative viability (Kobe2602 + OSI-027; first compound 2 µM) | relative viability (Kobe2602 + OSI-027; first compound 6.325 µM) | relative viability (Kobe2602 + OSI-027; first compound 20 µM) | relative viability (Kobe2602 + Decitabine; first compound 0.2 µM) | relative viability (Kobe2602 + Decitabine; first compound 0.6325 µM) | relative viability (Kobe2602 + Decitabine; first compound 2 µM) | relative viability (Kobe2602 + Decitabine; first compound 6.325 µM) | relative viability (Kobe2602 + Decitabine; first compound 20 µM) | relative viability (Zosuquidar + Foretinib; first compound 0.1 µM) | relative viability ([1]; first compound 0.02 µM)
HCC-78 | 0.549 | 0.548 | 0.571 | 0.606 | 0.704 | 0.503 | 0.489 | 0.487 | 0.39 | 0.375 | 0.722 | 0.385 | 0.44 | 0.65 | 0.711 | 0.6 | 0.724 | 0.727 | – | –
HCC-366 | 0.922 | 0.856 | 0.96 | 0.869 | 0.393 | 0.336 | 0.305 | 0.354 | 0.727 | 0.975 | 0.886 | 0.847 | 0.894 | 0.31 | 0.337 | 0.333 | 0.34 | 0.36 | 0.999 | 0.351
HCC-827 | 1.05 | 1.03 | 1.01 | 1.02 | 0.362 | – | 0.36 | 0.309 | 0.787 | 0.743 | 0.755 | 0.762 | 0.718 | 0.354 | 0.266 | 0.355 | 0.325 | 0.404 | 0.9 | 0.28
HOP-62 | 1.09 | 1.25 | 1.1 | 1.08 | 0.214 | 0.22 | 0.225 | 0.181 | 0.829 | 0.992 | 0.826 | 0.854 | 0.844 | 0.236 | 0.203 | 0.201 | 0.251 | 0.243 | 1.01 | 0.241
IA-LM | 1.09 | 1.23 | 1.34 | 1.17 | – | – | – | – | – | – | – | – | – | – | – | – | – | – | 1.26 | –
LC-2-ad | 0.975 | 0.933 | 1.03 | 0.931 | 0.811 | 0.772 | 0.633 | 0.539 | 0.775 | 0.823 | 0.824 | 0.865 | 1.02 | 0.664 | 0.888 | 0.943 | 0.825 | 0.815 | 0.862 | 0.814
LCLC-97TM1 | 0.922 | 0.929 | 1.01 | 0.974 | 0.262 | 0.252 | 0.265 | 0.21 | 0.475 | 0.488 | 0.551 | 0.556 | 0.584 | 0.234 | 0.229 | – | 0.242 | 0.28 | 0.9 | 0.24
LCLC-103H | 0.694 | 0.678 | 0.844 | 0.809 | 0.791 | 0.722 | 0.721 | 0.748 | 0.466 | 0.539 | 0.492 | 0.448 | 0.497 | 0.744 | 0.703 | 0.79 | 0.778 | 0.718 | 0.698 | 0.716
LK-2 | 1.32 | 1.03 | 1.05 | 1.23 | 0.369 | 0.336 | 0.301 | 0.267 | 0.231 | 0.208 | 0.239 | 0.248 | 0.212 | 0.379 | 0.293 | 0.283 | 0.313 | 0.442 | 1.3 | 0.182
LOU-NH91 | 0.882 | 0.857 | 0.936 | 0.91 | 0.825 | 0.654 | 0.791 | 0.802 | 0.739 | 0.786 | 0.69 | 0.754 | 0.71 | 0.794 | 0.895 | 0.801 | 0.809 | 0.826 | – | 0.798
LU99A | 0.784 | 0.931 | 0.855 | 0.814 | 1.01 | 0.854 | 0.787 | 0.882 | 0.336 | 0.329 | 0.281 | 0.342 | 0.333 | 0.913 | 1.01 | 0.746 | 0.955 | 0.859 | 0.813 | 0.843
LXF-289 | 0.956 | 1.02 | 1.02 | 0.968 | 0.395 | 0.392 | 0.433 | 0.377 | 0.836 | 0.836 | 0.777 | 0.879 | 0.87 | 0.387 | 0.432 | 0.386 | 0.381 | 0.378 | 0.94 | 0.353
NCI-H23 | 0.979 | 0.875 | 1.04 | 1.09 | 0.348 | 0.337 | 0.303 | 0.327 | 0.499 | 0.673 | 0.541 | 0.638 | 0.667 | 0.2 | 0.345 | 0.316 | 0.304 | 0.39 | 1.02 | –
NCI-H522 | – | – | – | – | 0.655 | 0.564 | 0.74 | 0.654 | 0.856 | 0.687 | 0.737 | 0.636 | 0.672 | 0.693 | 0.654 | 0.649 | 0.642 | 0.756 | – | 0.577
NCI-H1299 | 1.09 | 1.08 | 1.14 | 1.06 | – | – | – | – | – | – | – | – | – | – | – | – | – | – | 1.15 | –
NCI-H1563 | 1.04 | 0.9 | 1.1 | 0.932 | – | – | – | – | 0.721 | 0.743 | 0.797 | 0.757 | 0.754 | – | – | – | – | – | 0.967 | –
NCI-H1623 | 0.868 | 0.832 | 0.933 | 0.803 | – | – | – | – | 0.457 | 0.448 | 0.424 | 0.374 | 0.433 | – | – | – | – | – | 0.821 | –
NCI-H1648 | – | – | – | – | 0.524 | – | 0.532 | 0.516 | 0.246 | 0.277 | 0.248 | 0.26 | 0.25 | 0.657 | 0.489 | 0.402 | 0.533 | 0.509 | – | 0.469
NCI-H1703 | 0.353 | 0.287 | 0.393 | 0.33 | – | – | – | – | – | – | – | – | – | – | – | – | – | – | 0.341 | –
NCI-H1792 | – | – | – | – | 0.557 | 0.609 | 0.588 | 0.444 | 0.728 | 0.732 | 0.821 | 0.5 | 0.625 | 0.489 | 0.512 | 0.461 | 0.472 | 0.526 | – | –
NCI-H2228 | 0.933 | 0.438 | 0.768 | 0.714 | – | – | – | – | 0.658 | 0.684 | 0.549 | 0.416 | 0.722 | – | – | – | – | – | 0.995 | –
